Measurements from patent US4261910A, “Process for the preparation of Chlorambucil derivatives” (Kureha Kagaku Kogyo Kabushiki Kaisha, priority 1978, dated 1981).
Where two headings read alike, the source gives them in different places.

Tests used:
[1] = system: estrogen receptor; assay: Test 3: binding function to estrogen sensitive cells (displacement of 3H-estradiol from uterus of rabbit)
Experimental: Binding function of 3-hydroxy-1,3,5(10)-estratriene-17β-[4-{p-[bis(2-chloroethyl)amino]phenyl}butyryloxy]acetate to estrogen sensitive cells.
Estradiol labelled by tritium (^3 H) was incubated with uterus of rabbit to bind it and then, the sample was added to the system to measure the amount of free ^3 H-estradiol which was replaced by the […].

[2] = system: human breast cancer cells having steroid hormone receptor; assay: Test 2: antitumor effect, dispersion in Polysolvate 80, intraperitoneal injection; format: in vivo, human (implanted in BALB/C-nu/nu mice); conditions: Polysolvate 80 dispersion
Source text: (§1) Pieces of human breast cancer cells having steroid hormone receptor were subcutaneously implanted under the arm of mice (BALB/C-nu/nu) (5 week age) to form solid tumors. After the solid tumors were established, each dispersion or solution of the active ingredient in olive oil was administrated by oral dose or intraperitoneal injection each other day for 10 times or every days for 20 times. Twenty five days from the initial administration, the tumors were excised. Efficiency of inhibition of tumor proliferation was measured from (A) each average weight of excised tumors for 10 mice (the active ingredient was administrated) and (B) each average weight of excised tumors for 10 control mice. [formula]
In accordance with the test I, except administrating each active ingredient in a form of dispersion dispersed in Polysolvate 80 (emulsifier) by an intraperitoneal injection in the test of antitumor effect.

[3] = Acute toxicity (LD50); set-up: species or system mice (ICR-JCL); conditions: mouse, in vivo; for LD50: Test 2, route and unit inferred; for LD50 at 168 h: mice
Experimental: In the measurement of LD50, eight ICR-JCL female mice (5 week age) were used as one group to breed in a transparent polycage, and each drug was dissolved in olive oil and administrated by routes of intraperitoneal injection (i.p.), oral administration (p.o.) and subcutaneous injection (s.c.), to the mice at one dose, and then, their value of LD50 by Litchfield-Wilcoxon graph method is obtained after 7 days. LD50 of Chlorambucil was i.p. 20 mg./kg., p.o. 80 mg./kg., and s.c. 26 mg./kg., LD50 of the sample No. 2 in Table 1 of the present invention was i.p. greater than 3000 mg./kg., p.o. greater than 6000 mg./kg. and s.c. greater than 3000 mg./kg.. […]

[4] = system: spleen, uterus and thymus; assay: Observation in autopsy; format: in vivo, mice (BALB/C-nu/nu); conditions: autopsy after administration
Source text: as §1

[5] = system: human breast cancer cells having steroid hormone receptor; assay: Antitumor test (in vivo), implanted human breast cancer, drug in olive oil; set-up: species or system human (implanted in BALB/C-nu/nu mice); conditions: oral administration
Source text: as §1

[6] = system: human breast cancer cells having steroid hormone receptor; assay: as above; set-up: species or system human (implanted in BALB/C-nu/nu mice)
[7] = subcutaneous administration, 5 mg/kg
[8] = subcutaneous administration, 10 mg/kg
[9] = ip, single dose in olive oil, i.p., 7 days, read-out: LD50
[10] = po, oral administration, Table 1, read-out: LD50 (Oral administration)
[11] = po, single dose in olive oil, p.o., 7 days, read-out: LD50
[12] = sc, single dose in olive oil, s.c., 7 days, read-out: LD50
[13] = sc, subcutaneous administration, Table 1, read-out: LD50 (Subcutaneous administration)

Compound	binding function to estrogen receptor [1]	free 3H-estradiol (displacement) ([1]; compared with estradiol)	Inhibitory effect (%) ([2]; 0.5 mg./kg.)	Inhibitory effect (%) ([2]; 5 mg./kg.)	LD50 ([3]; ip)	changes of spleen, uterus and thymus in autopsy [4]	Efficiency of inhibition ([5]; 10 mg/kg)	Survived ratio ([5]; 10 mg/kg)	Efficiency of inhibition ([5]; 15 mg/kg)	Survived ratio ([5]; 15 mg/kg)	Efficiency of inhibition [6, 7]	Survived ratio [6, 7]	Efficiency of inhibition [6, 8]	Survived ratio [6, 8]	Efficiency of inhibition ([6]; subcutaneous and oral administration, 15 mg./kg. (text, about))	LD50 at 168 h [3, 9]	LD50 at 168 h [3, 10]	LD50 at 168 h [3, 11]	LD50 at 168 h [3, 12]	LD50 at 168 h [3, 13]
C[C@]12CC[C@@H]3c4ccc(O)cc4CC[C@H]3[C@@H]1CC[C@@H]2OC(=O)COC(=O)CCCc1ccc(N(CCCl)CCCl)cc1 [3-hydroxy-1,3,5(10)-estratriene-17β-[4-{p-[bis(2-chloroethyl)amino]phenyl}butyryloxy]acetate]	has the binding function to estrogen receptor	free ^3 H-estradiol was increased as the same with estradiol itself	91%	97%	> 1000 mg/kg															
O=C(O)CCCc1ccc(N(CCCl)CCCl)cc1 [Sample No. 1, 4-{p-[bis(2-chloroethyl)amino]phenyl}butyric acid, reference compound]				30%	20 mg/kg	serious changes of spleen, uterus and thymus were found	55%	8/10	70%	7/10	53%	9/10	71%	7/10	50 to 70%	20 mg/kg	80 mg/kg	80 mg/kg	26 mg/kg	26 mg/kg
C[C@]12CC[C@@H]3c4ccc(OC(=O)c5ccccc5)cc4CC[C@H]3[C@@H]1CC[C@@H]2OC(=O)COC(=O)CCCc1ccc(N(CCCl)CCCl)cc1 [Sample No. 2, 3-benzoyloxy-1,3,5(10)-estratriene-17β-[4-{p-[bis(2-chloroethyl)amino]phenyl}butyryloxy]acetate]							92%	10/10	98%	10/10	90%	10/10	98%	10/10		> 3000 mg/kg	> 6000 mg/kg	> 6000 mg/kg	> 3000 mg/kg	> 2000 mg/kg
CC(=O)Oc1ccc2c(c1)CC[C@@H]1[C@@H]2CC[C@]2(C)[C@@H](OC(=O)COC(=O)CCCc3ccc(N(CCCl)CCCl)cc3)CC[C@@H]12 [Sample No. 3, 3-acetoxy-1,3,5(10)-estratriene-17β-[4-{p-[bis(2-chloroethyl)amino]phenyl}butyryloxy]acetate]							91%	10/10	93%	10/10	93%	10/10	95%	10/10			> 3000 mg/kg			> 2000 mg/kg
CCC(=O)Oc1ccc2c(c1)CC[C@@H]1[C@@H]2CC[C@]2(C)[C@@H](OC(=O)COC(=O)CCCc3ccc(N(CCCl)CCCl)cc3)CC[C@@H]12 [Sample No. 4, 3-propionyloxy-1,3,5(10)-estratriene-17β-[4-{p-[bis(2-chloroethyl)amino]phenyl}butyryloxy]acetate]							93%	10/10	97%	10/10	92%	10/10	94%	10/10			> 3000 mg/kg			> 2000 mg/kg
